Laboratory results from publication PMC12239253 (BMC Complementary Medicine and Therapies, 2025).

Molecular target: glycoprotein B (gB) (Human alphaherpesvirus 1 strain 17, UniProt P10211)
Test: surface plasmon resonance
Type: binding

C=C1CC/C=C(\C)CC[C@@H]2[C@@H]1CC2(C)C [BCP, β-caryophyllene]
Kd: 4.26 µM
